Where a name gives a salt, the structure may show the parent alone.
Experiments:
Format in all cases: biochemical
Duramyl (alpha amylase) = assay: Organic Catalyst/Enzyme Compatibility Test (alpha amylase activity assay), Duramyl; settings: (Ac/Ab)x100; peracetic acid 5.0 ppm; organic catalyst 0.5 ppm; 40° C.; sample at 7 min 45 s
Procedure: (§1) Organic Catalyst/Enzyme Compatibility Test
(§2) The test described below uses an alpha amylase activity assay to measure the impact of organic catalysts on the enzyme.
(§3) Equipment. UV/Vis spectrophotometer capable of measuring @ 415 nm, heated magnetic stirrer capable of 40° C., 5 ml Luer lock syringe and filters (Acrodisc 0.45 ? μm), pH meter, and balance (4-place analytical).
(§4) Reagents. Merck Amylase Kit (Merck Eurolab, Cat. No. 1.19718.0001); Trizma Base (Sigma Cat # T-1503, or equivalent); Calcium Chloride Dihydrate (Sigma Cat # C-5080, or equivalent); Sodium Thiosulfate Pentahydrate (Sigma Cat # S-6672 or equivalent); Hydrochloric Acid (VWR Cat # JT9535-0, or equivalent); Hardness solution (CTC Group, 3.00 gr/cc or equivalent); Sodium Percarbonate; Peracetic Acid (Aldrich, Cat. #26933-6 or equivalent); Amylase enzymes: Termamyl, Natalase, and Duramyl (Novozymes, Denmark); Granular detergent matrix containing no enzyme, organic catalyst or bleaching agents.
(§5) 1.) Solution Preparation: Prepare the Following:
(§6) • a.) TRIS Assay Buffer. Prepare 1 liter of 0.1M TRIS buffer, 0.5% sodium thiosulphate (W/V), 0.11% calcium chloride (w/v) at pH 8.3. • b.) Blank Detergent Solution. Prepare one liter of 0.5% enzyme and bleach free granular detergent product in deionized water (W/V) that is 250 ppm H2O2 (0.77 gm percarbonate) and 10 gpg hardness (880 UI of hardness). • c.) Termamyl, Duramyl and Natalase Stock. Make 100 ml solutions each of a 0.1633 mg active Termamyl per ml TRIS Buffer, a 0.1159 mg active Natalase per ml TRIS Buffer, and a 0.1596 mg active Duramyl per ml TRIS Buffer. • d.) Organic catalyst stocks. Make a 500 ppm in methanol solution of μm. • e.) Peracetic acid stock. Make a 3955 ppm peracetic acid solution in deionized water. • f.) Amylase reagent. Follow Merck kit instructions for preparing flacons (containers) 1 and 2 using flacon 3 and subsequent mixing of flacons 1 and 2 to produce the final reagent used in the amylase activity analysis. 2.) Sample Analysis • a.) Analysis of sample with enzyme only: Add 100 ml of blank detergent solution to a 150 ml beaker. Place beaker on heated stir plate and bring temperature to 40° C. with stirring. Add Y μl of enzyme stock to the beaker where Y=612 μL for Duramyl, 306 μl for Termamyl, or 918 μl for Natalase. Spike only enzyme of interest. Stir sample for 1 minute. Start timer. At 7 minutes 45 seconds, pull a sample and filter it using a 0.45 μm syringe filter (5 ml syringe). Mix 6 μl of filtered sample with 250 μL of amylase reagent in a cuvette and place the cuvette in a UV/VIS spectrophotometer and monitor change in absorbance at 415 nm. Determine length of time (tE) to the nearest second required to obtain an absorbance reading of 1.0 for each enzyme. Use each enzyme's tE in Steps 2.)b.) and 2.)c.) below. • b.) Analysis of sample with enzyme and peracetic acid only. Follow Step 2.)a.) except after enzyme addition, allow solution to stir for 1 minute then add 127 μl of peracetic acid stock and start timer. Pull sample at 7 minutes 45 seconds as in Step 2.)a.). Once sample and reagent are mixed, record the absorbance at tE for the respective enzyme. Designate such absorbance Ab. • c.) Analysis of sample with enzyme, peracetic acid, and organic catalyst. […] Once sample and reagent are mixed, record the absorbance at tE for the respective enzyme. Designate such absorbance A, 3.) Calculate Enzyme Compatibility Value (ECV) • a.) Calculate the ECV for each specific enzyme: termamyl (ECVter), duramyl (ECVdur) and natalase (ECVnat). […]

[1] = tested on: Termamyl, Duramyl and Natalase (alpha amylases); assay: Organic Catalyst/Enzyme Compatibility Test, average over the three amylases; settings: ECV=(ECVter+ECVdur+ECVnat)/3; peracetic acid 5.0 ppm; organic catalyst 0.5 ppm
Procedure: as §1, §2, §3, §4, §5, §6

Termamyl (alpha amylase) = molecular target: T1, Termamyl (alpha amylase) (Bacillus licheniformis, UniProt P06278); assay: Organic Catalyst/Enzyme Compatibility Test (alpha amylase activity assay), Termamyl; settings: (Ac/Ab)x100; peracetic acid 5.0 ppm; organic catalyst 0.5 ppm; 40° C.; sample at 7 min 45 s
T1 construct: purchased Novozymes, Denmark
T1 sequence (P06278 30-512): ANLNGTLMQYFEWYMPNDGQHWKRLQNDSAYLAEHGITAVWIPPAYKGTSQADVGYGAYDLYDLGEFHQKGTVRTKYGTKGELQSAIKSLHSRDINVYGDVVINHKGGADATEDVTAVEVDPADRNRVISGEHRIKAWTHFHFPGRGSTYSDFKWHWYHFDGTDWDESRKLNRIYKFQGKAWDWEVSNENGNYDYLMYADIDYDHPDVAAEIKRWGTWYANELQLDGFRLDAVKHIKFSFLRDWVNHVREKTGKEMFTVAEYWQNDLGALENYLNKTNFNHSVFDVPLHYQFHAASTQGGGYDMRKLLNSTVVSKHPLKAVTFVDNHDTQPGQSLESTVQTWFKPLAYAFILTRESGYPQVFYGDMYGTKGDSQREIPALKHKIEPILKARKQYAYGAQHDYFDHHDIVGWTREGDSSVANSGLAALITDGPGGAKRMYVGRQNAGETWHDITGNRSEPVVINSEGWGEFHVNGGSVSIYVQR
Procedure: as §1, §2, §3, §4, §5, §6

Natalase (alpha amylase) = assay: Organic Catalyst/Enzyme Compatibility Test (alpha amylase activity assay), Natalase; settings: (Ac/Ab)x100; peracetic acid 5.0 ppm; organic catalyst 0.5 ppm; 40° C.; sample at 7 min 45 s
Procedure: as §1, §2, §3, §4, §5, §6

Row | Structure (SMILES) | Enzyme Compatibility Value ECVdur (Duramyl (alpha amylase)) | Enzyme Compatibility Value ECV [1] | Enzyme Compatibility Value ECVter (Termamyl (alpha amylase)) | Enzyme Compatibility Value ECVnat (Natalase (alpha amylase))
1 | CC(C)(C)OCC(C[N+]1=Cc2ccccc2CC1)OS(=O)(=O)[O-] (centres unmarked) [Entry 1, Sulfuric acid mono-[2-(3,4-dihydro-isoquinolin-2-yl)-1-((1,1-di-methylethoxy)methyl)ethyl] ester, internal salt, reference compound] | 86 | 65 | 51 | 58
2 | CCCCC(CC)COCC(C[N+]1=Cc2ccccc2CC1)OS(=O)(=O)[O-] (centres unmarked) [Entry 2, Sulfuric acid mono-[2-(3,4-dihydro-isoquinolin-2-yl)-1-(2-ethyl-hexyloxymethyl)-ethyl] ester, internal salt, reference compound] | 90 | 67 | 54 | 57
3 | O=S(=O)([O-])OCC[N+]1=Cc2ccccc2C(Cc2ccccc2)(Cc2ccccc2)C1 [Entry 3, 3,4-dihydro-4,4-di(phenylmethyl)-2-[2′-(sulfooxy)ethyl]-isoquinolinium, internal salt] | 100 | 101 | 101 | 103
4 | O=S(=O)([O-])CCC[N+]1=Cc2ccccc2C(Cc2ccccc2)(Cc2ccccc2)C1 [Entry 4, 3,4-dihydro-4,4-dibenzyl-2-(3-sulfopropyl)isoquinolinium, Internal salt] | 99 | 102 | 102 | 104
5 | Cc1ccc(CC2(Cc3ccc(C)cc3)C[N+](CCCS(=O)(=O)[O-])=Cc3ccccc32)cc1 [Entry 5, 3,4-dihydro-4,4-di(4-methylphenylmethyl)-2-(3-sulfopropyl)-isoquinolinium, internal salt] | 99 | 100 | 103 | 99

From patent publication US8426596B2, “Process of producing bleach boosters” (BASF Aktiengesellschaft, priority 2005, dated 2013)
